Legend:
[1] = target: T1, GLP-1R (Homo sapiens, UniProt P43220); experiment: GLP-1R low density cAMP accumulation in HEK293 cells; format: cell-based; design: expressed in transfected cells; host or cells: HEK293
Experimental: (§1) Fig. 4. […] (B) Ligand-induced GTPγS binding of Gαs was performed using the GIPR-expressing membranes. […] (C) Agonist-stimulated cAMP production was measured in human GIPR expressing HEK293 cells. […] (E) Ligand-induced GTPγS binding of Gαs was performed using the GLP-1R-expressing membranes. […] (F) Agonist-stimulated cAMP production was measured in human GLP-1R-expressing HEK293 cells. […] Data presented are representative of n ≥ 3 independent experiments. Summarized data are shown in SI Appendix, Table 2. log M; log Molar.
(§2) We note that the albumin-binding propensity of fatty acid-modified peptides can confound a pharmacological comparison of molecules, given the common use of albumin and serum as nonspecific blocking agents in biological assays. Therefore, to obviate this, entirely albumin-free assays supplemented with bovine casein or bacitracin were used to prevent nonspecific binding ([10]). […]
(§3) Middle Panel: The affinity (Ki) of ligands for the GLP-1R was […]
(§4) Functional potency (EC50) and efficacy (% Top) of ligands to induce Gα s-GTPγS binding and cAMP accumulation in HEK293 cells expressing GLP-1R were determined. The equilibrium affinity (KD) of ligands for the immobilized ectodomain of the GLP-1R were quantified by surface plasmon resonance. […]
(§5) SPR data were analyzed using T200 evaluation software (Cytiva). All data are presented as geometric means with SEM and n values according to established practices. ND, not determined. NA, not applicable.
Target sequence in this assay (P43220 24-463): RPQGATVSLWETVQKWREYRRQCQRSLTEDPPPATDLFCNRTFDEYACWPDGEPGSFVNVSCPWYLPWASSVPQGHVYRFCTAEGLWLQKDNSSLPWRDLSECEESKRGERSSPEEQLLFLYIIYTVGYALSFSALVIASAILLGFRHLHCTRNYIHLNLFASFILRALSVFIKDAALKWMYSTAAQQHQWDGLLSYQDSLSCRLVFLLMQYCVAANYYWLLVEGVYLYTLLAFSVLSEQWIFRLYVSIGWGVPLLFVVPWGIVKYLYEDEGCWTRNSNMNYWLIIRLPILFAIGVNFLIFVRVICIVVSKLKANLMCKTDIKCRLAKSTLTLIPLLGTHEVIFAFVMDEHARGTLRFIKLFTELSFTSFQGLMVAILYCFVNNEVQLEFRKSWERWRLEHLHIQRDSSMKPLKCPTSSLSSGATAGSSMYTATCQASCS

[2] = target: T1, GLP-1R; experiment: GLP-1R Gαs [35S]GTPγS binding, GLP-1R-expressing membranes; format: biochemical; design: expressed in transfected cells; host or cells: HEK293
Experimental: as §1, §2, §3, §4, §5
Target sequence in this assay (P43220 24-463): as above

[3] = target: T2, ECD of human GIPR (amino acids 26 to 138) (Homo sapiens, UniProt P48546); experiment: GIPR extracellular domain binding by surface plasmon resonance; conditions: equilibrium affinity, immobilized GIPR ectodomain, Biacore T200, HBS-EP pH 7.6; (SEM, n); read-out: GIPR SPR KD
T2 construct: human GIPR (amino acids 26 to 138); 6His; made in house; host or cells: CHO cells
T2 sequence (P48546 26-138): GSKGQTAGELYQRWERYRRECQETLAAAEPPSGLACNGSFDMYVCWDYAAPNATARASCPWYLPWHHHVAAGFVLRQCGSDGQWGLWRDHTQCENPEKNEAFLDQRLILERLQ
Text: DNA encoding each protein was transfected into CHO cells for expression. After expression, the proteins were purified by affinity chromatography (HIS-Trap Ni, Cytiva) followed by size exclusion chromatography using a HiLoad 26/600 Superdex 75pg column (Cytiva) with PBS buffer. […] Surface plasmon resonance measurements were made using a Biacore T200 (Cytiva) and analyzed using T200 Evaluation Software Version 3.1. Receptor ectodomain proteins were covalently immobilized (∼250 resonance units) on Sensor Chip CM4 BR100534 using the Amine coupling Immobilization Wizard in the Biacore T200 Control Software Version 2.0.2. […]
(§6) and efficacy (% Top) of ligands to induce Gα s -GTPγS binding and cAMP accumulation in HEK293 cells expressing GIPR were determined. The equilibrium affinity (KD) of ligands for the immobilized ectodomain of the GIPR were quantified by surface plasmon resonance. […]
as §4
(§7) recruitment to the GLP-1R were determined using the NanoBRET approach. The potency (EC50) and efficacy (% Top) for ligands to induce GLP-1R Internalization were determined using diffusion-enhanced resonance energy transfer. […]

[4] = target: T1, GLP-1R; experiment: β-arrestin 1 recruitment to the GLP-1R, NanoBRET; format: cell-based; design: expressed in transfected cells
Experimental: Functional potency (EC50) […]
as §6, with “resonance. Middle Panel: The affinity (Ki) of ligands for the GLP-1R was” for “resonance.”
as §4, §7
Target sequence in this assay (P43220 24-463): as the sequence (P43220 24-463) above
Target sequence in this assay (P49407 whole entry partner): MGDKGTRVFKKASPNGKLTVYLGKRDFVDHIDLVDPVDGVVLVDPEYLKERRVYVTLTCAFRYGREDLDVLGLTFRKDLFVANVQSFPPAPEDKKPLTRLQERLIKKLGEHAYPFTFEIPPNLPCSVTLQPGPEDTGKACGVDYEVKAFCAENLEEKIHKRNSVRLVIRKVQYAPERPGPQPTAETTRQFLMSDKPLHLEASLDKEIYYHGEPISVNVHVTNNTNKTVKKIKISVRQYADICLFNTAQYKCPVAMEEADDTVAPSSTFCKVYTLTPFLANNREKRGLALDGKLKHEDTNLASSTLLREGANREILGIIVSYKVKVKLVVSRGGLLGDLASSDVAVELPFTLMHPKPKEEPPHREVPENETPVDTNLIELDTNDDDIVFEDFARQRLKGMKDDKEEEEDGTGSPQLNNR
relative efficacy for NanoBRET assays. SPR data were analyzed using T200 evaluation software (Cytiva). All data are presented as geometric means with SEM and n values according to established practices. ND, not determined. NA, not applicable.

[5] = efficacy (% Top), normalized to GLP-1(7-36), (SEM)

## CC[C@H](C)[C@H](NC(=O)[C@H](CC(C)C)NC(=O)[C@H](Cc1c[nH]c2ccccc12)NC(=O)[C@H](CCC(N)=O)NC(=O)[C@@H](NC(=O)[C@H](Cc1ccccc1)NC(=O)[C@H](C)NC(=O)[C@H](CCCCN)NC(=O)[C@H](CCC(N)=O)NC(=O)[C@H](C)NC(=O)[C@@H](NC(=O)[C@H](CCCCN)NC(=O)[C@H](CC(=O)O)NC(=O)[C@H](CC(C)C)NC(=O)C(C)(C)NC(=O)[C@@H](NC(=O)[C@H](CO)NC(=O)[C@H](Cc1ccc(O)cc1)NC(=O)[C@H](CC(=O)O)NC(=O)[C@H](CO)NC(=O)[C@@H](NC(=O)[C@H](Cc1ccccc1)NC(=O)[C@@H](NC(=O)CNC(=O)[C@H](CCC(=O)O)NC(=O)C(C)(C)NC(=O)[C@@H](N)Cc1ccc(O)cc1)[C@@H](C)O)[C@@H](C)O)[C@@H](C)CC)[C@@H](C)CC)C(C)C)C(=O)N[C@@H](C)C(=O)NCC(=O)NCC(=O)N1CCC[C@H]1C(=O)N[C@@H](CO)C(=O)N[C@@H](CO)C(=O)NCC(=O)N[C@@H](C)C(=O)N1CCC[C@H]1C(=O)N1CCC[C@H]1C(=O)N1CCC[C@H]1C(=O)N[C@@H](CO)C(N)=O [Tzp∆C20]
[1]; cAMP accumulation, HEK293 cells expressing GLP-1R, albumin-free, geometric mean (SEM, n)
  EC50: 1.05 nM
[1]; [5]
  GLP-1R Low Density cAMP Top: 105 (2) %
[2]; Gαs-GTPγS binding, GLP-1R-expressing membranes, albumin-free, geometric mean (SEM, n), read-out: GLP-1R GTPγS Recruitment EC50
  EC50: 0.626 nM
[2]; [5]
  GLP-1R GTPγS Recruitment Top: 74.8 (9.1) %
[3]
  Kd: 1690 nM
[4]; NanoBRET, geometric mean (SEM, n), read-out: GLP-1R β-Arr1 Recruitment EC50
  EC50: 3.99 nM
[4]; efficacy (% Top), relative efficacy to GLP-1, (SEM)
  GLP-1R β-Arr1 Recruitment Top: 25.9 (2.6) %

From publication PMC9060465 (Proceedings of the National Academy of Sciences of the …, 2022)
